Measured values published in patent publication US11572590B2, “Methods for evaluating tumor cell spheroids using 3D microfluidic cell culture device” (Dana-Farber Cancer Institute, Inc., priority 2017, dated 2023).
Like-named read-outs stand apart in the source and are kept apart here.

How the values were obtained:
Test in all cases: SelectScreen Kinase Profiling, single point inhibition and IC50 for off-target kinases
Assay type in all cases: biochemical
off-target kinases [1] = molecular target: off-target kinases (Homo sapiens, UniProt O43353); settings: RIPK2, LanthaScreen Binding
off-target kinases (Homo sapiens, UniProt O43353), sequence (O43353 whole entry): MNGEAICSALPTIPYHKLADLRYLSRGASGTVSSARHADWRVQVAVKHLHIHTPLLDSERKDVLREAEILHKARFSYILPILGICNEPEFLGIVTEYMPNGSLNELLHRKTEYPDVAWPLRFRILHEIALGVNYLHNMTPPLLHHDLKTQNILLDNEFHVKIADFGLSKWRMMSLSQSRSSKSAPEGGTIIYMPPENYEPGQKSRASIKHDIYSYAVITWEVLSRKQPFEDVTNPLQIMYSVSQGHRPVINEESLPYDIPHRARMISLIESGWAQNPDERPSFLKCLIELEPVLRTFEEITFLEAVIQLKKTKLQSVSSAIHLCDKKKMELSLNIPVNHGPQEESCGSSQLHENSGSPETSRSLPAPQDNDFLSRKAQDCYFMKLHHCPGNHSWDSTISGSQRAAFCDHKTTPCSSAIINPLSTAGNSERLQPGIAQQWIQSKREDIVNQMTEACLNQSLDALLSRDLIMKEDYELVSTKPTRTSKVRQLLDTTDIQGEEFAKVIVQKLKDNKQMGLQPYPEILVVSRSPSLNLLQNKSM

off-target kinases [2] = molecular target: off-target kinases (Homo sapiens, UniProt O94921); settings: CDK14 (PFTK1)/cyclin Y, LanthaScreen Binding
off-target kinases (Homo sapiens, UniProt O94921), sequence (O94921 whole entry): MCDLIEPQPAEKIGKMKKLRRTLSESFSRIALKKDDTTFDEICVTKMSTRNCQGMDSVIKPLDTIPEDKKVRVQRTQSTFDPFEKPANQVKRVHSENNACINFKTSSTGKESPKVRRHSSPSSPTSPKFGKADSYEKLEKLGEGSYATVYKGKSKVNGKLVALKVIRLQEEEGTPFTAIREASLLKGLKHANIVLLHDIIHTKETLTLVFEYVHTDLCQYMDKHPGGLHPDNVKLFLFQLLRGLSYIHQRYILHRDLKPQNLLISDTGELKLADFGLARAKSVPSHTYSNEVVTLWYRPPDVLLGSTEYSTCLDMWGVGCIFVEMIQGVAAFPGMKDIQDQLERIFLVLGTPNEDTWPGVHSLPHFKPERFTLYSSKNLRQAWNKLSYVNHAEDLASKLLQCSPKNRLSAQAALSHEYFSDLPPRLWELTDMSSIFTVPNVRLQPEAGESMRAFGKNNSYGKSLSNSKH

off-target kinases [3] = molecular target: off-target kinases (Homo sapiens, UniProt P00533, DEL746-750); settings: EGFR (ErbB1) d746-750; mutant y; LanthaScreen Binding
off-target kinases [4] = molecular target: off-target kinases (Homo sapiens, UniProt P00533, T790M); settings: EGFR (ErbB1) T790M, mutant y, ZLYTE, ATP Km app
off-target kinases [5] = molecular target: off-target kinases (Homo sapiens, UniProt P19784); settings: CSNK2A2 (CK2 alpha 2), ZLYTE, ATP Km app
off-target kinases (Homo sapiens, UniProt P19784), sequence (P19784 whole entry): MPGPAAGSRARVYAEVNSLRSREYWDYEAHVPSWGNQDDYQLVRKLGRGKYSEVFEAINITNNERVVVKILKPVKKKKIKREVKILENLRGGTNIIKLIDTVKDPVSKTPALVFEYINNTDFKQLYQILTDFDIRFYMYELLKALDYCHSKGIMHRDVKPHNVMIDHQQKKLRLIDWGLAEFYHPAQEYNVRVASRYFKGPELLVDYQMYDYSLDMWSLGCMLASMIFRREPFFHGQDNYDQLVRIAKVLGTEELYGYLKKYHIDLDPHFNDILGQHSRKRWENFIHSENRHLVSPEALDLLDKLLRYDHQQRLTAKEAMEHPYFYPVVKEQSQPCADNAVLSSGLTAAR

off-target kinases [6] = molecular target: off-target kinases (Homo sapiens, UniProt P53350); settings: PLK1, ZLYTE, ATP Km app
off-target kinases (Homo sapiens, UniProt P53350), sequence (P53350 whole entry): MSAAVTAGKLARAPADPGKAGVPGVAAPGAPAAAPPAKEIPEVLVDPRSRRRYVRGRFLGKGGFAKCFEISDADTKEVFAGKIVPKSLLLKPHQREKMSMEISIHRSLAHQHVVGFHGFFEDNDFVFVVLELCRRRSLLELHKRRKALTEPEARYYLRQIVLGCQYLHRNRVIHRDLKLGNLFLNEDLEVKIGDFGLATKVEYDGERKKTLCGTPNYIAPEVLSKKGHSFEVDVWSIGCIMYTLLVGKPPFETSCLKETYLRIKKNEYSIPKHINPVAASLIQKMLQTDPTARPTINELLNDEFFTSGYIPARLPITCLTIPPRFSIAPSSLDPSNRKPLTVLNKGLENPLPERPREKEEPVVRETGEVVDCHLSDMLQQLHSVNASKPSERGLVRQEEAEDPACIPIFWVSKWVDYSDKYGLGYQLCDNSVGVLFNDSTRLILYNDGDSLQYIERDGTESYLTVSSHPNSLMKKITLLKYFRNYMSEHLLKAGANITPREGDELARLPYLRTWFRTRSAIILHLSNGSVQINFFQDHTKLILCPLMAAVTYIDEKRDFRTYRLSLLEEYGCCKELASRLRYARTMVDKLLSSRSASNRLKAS

off-target kinases [7] = molecular target: off-target kinases (Homo sapiens, UniProt Q02750); settings: MAP2K1 (MEK1)
off-target kinases (Homo sapiens, UniProt Q02750), sequence (Q02750 whole entry): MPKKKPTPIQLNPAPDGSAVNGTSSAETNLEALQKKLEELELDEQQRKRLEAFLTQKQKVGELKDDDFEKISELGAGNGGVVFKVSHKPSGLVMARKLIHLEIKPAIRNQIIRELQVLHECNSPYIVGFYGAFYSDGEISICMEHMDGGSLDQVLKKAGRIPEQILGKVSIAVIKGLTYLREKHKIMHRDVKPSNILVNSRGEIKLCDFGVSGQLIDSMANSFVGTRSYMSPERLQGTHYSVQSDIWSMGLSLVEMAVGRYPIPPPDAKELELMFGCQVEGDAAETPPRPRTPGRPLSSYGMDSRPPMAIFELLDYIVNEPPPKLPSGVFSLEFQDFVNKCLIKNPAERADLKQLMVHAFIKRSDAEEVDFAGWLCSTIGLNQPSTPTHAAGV

off-target kinases [8] = molecular target: off-target kinases (Homo sapiens, UniProt Q14289); settings: PTK2B (FAK2), ZLYTE, ATP Km app
off-target kinases (Homo sapiens, UniProt Q14289), sequence (Q14289 whole entry): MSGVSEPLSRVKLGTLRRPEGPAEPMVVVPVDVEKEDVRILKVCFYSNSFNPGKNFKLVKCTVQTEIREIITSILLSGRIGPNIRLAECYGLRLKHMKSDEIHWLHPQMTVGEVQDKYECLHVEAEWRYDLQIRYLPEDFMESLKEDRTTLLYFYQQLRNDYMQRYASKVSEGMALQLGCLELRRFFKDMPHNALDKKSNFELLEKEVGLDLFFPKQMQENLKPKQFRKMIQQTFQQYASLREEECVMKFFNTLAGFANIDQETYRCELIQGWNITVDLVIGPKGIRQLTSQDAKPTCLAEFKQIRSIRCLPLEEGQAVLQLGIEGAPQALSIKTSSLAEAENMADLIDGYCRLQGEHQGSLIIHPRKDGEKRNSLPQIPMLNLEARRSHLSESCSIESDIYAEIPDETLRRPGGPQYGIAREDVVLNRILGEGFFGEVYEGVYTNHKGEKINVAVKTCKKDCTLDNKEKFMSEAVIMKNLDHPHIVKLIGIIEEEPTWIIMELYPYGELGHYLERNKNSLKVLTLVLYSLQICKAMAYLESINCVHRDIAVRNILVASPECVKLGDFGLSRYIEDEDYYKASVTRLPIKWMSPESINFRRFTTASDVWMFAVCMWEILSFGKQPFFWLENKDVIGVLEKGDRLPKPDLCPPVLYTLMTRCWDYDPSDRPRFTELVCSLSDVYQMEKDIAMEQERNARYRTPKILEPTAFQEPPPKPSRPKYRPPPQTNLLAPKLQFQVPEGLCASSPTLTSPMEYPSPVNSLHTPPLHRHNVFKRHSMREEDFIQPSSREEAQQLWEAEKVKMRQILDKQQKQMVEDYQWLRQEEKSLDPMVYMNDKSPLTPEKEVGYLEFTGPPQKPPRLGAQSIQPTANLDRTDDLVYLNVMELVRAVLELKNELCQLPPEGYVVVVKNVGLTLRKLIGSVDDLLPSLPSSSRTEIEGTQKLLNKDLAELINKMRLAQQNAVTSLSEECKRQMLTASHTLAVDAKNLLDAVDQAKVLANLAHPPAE

off-target kinases [9] = molecular target: T1, off-target kinases (Homo sapiens, UniProt Q96PF2); settings: STK22B (TSSK2), ZLYTE, ATP Km app
T1 sequence (Q96PF2 1-358): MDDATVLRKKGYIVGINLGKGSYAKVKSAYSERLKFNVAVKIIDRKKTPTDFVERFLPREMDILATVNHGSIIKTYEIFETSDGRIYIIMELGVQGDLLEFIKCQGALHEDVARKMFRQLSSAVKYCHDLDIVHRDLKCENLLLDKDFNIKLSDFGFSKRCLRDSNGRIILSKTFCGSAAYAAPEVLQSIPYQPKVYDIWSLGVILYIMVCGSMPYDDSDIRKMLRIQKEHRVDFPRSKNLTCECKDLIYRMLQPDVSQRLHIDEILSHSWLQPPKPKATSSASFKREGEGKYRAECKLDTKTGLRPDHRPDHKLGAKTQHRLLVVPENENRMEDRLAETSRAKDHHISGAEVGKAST

off-target kinases [10] = molecular target: off-target kinases (Homo sapiens, UniProt Q9NYL2); settings: ZAK, LanthaScreen Binding
off-target kinases [11] = molecular target: off-target kinases (Homo sapiens, UniProt Q9UM73); settings: ALK, ZLYTE, ATP Km app
off-target kinases [12] = molecular target: off-target kinases (Homo sapiens, UniProt Q9Y2K2); settings: SIK3, LanthaScreen Binding
off-target kinases (Homo sapiens, UniProt Q9Y2K2), sequence (Q9Y2K2 whole entry): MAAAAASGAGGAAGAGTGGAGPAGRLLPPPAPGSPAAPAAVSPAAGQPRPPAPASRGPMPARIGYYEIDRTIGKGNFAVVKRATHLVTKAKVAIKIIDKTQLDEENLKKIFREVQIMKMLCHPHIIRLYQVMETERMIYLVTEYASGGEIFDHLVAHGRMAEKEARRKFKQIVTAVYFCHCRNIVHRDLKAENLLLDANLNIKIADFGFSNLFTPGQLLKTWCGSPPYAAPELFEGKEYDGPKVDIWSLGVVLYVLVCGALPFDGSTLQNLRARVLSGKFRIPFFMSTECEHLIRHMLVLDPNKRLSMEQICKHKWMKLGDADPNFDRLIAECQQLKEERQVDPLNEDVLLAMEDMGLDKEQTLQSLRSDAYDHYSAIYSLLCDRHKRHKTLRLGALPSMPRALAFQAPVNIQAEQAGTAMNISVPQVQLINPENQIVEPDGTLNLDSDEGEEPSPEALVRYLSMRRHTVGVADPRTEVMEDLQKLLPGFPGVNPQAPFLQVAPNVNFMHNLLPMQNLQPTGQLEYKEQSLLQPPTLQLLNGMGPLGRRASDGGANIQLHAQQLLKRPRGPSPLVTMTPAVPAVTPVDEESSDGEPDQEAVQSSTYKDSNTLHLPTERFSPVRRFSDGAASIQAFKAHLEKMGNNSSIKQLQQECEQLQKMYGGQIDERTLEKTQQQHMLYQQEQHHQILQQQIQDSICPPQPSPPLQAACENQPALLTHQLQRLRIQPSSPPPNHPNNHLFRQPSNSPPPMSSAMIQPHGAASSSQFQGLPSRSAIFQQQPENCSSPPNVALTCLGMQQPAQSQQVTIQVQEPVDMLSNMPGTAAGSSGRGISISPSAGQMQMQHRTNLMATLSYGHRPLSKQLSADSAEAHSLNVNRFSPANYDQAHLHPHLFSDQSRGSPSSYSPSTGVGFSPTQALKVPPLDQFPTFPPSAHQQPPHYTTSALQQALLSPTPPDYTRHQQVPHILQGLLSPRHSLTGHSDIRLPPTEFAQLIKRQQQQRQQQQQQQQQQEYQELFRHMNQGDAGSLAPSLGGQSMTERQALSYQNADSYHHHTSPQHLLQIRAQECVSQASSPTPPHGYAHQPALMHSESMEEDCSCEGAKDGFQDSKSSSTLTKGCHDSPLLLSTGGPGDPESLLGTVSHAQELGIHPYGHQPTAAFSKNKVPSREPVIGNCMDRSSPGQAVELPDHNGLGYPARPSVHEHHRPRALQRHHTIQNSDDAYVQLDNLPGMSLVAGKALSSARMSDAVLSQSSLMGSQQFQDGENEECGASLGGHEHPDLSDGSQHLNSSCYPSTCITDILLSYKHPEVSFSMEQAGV

`N#Cc1cc(-c2ncnc(Nc3ccc(N4CCN(C5COC5)CC4)cc3)n2)ccc1OC1CCOCC1` [Compound 1, 5-(4-((4-(4-(oxetan-3-yl)piperazin-1-yl)phenyl)amino)-1,3,5-triazin-2-yl)-2-((tetrahydro-2H-pyran-4-yl)oxy)benzonitrile] showed an inhibition (off-target kinases [1]; read-out: % Inhibition 1) of 84%, an inhibition (off-target kinases [1]; read-out: % Inhibition 2) of 86% and an inhibition (off-target kinases [1]; read-out: % Inhibition Avg) of 85%. The inhibition (off-target kinases [2]; read-out: % Inhibition 1) was 56%, the inhibition (off-target kinases [2]; read-out: % Inhibition 2) was 51% and the inhibition (off-target kinases [2]; read-out: % Inhibition Avg) was 54%. The inhibition (off-target kinases [3]) was 14%, the inhibition (off-target kinases [4]; read-out: % Inhibition 1) was 25% and the inhibition (off-target kinases [4]; read-out: % Inhibition 2) was 25%. The inhibition (off-target kinases [4]; read-out: % Inhibition Avg) was 25%, the inhibition (off-target kinases [5]; read-out: % Inhibition 1) was 32% and the inhibition (off-target kinases [5]; read-out: % Inhibition 2) was 30%. The inhibition (off-target kinases [5]; read-out: % Inhibition Avg) was 31%, the inhibition (off-target kinases [6]; read-out: % Inhibition 1) was 12% and the inhibition (off-target kinases [6]; read-out: % Inhibition 2) was 9%. For the same compound, the inhibition (off-target kinases [6]; read-out: % Inhibition Avg) was 11%, the inhibition (off-target kinases [7]; LanthaScreen Binding, read-out: % Inhibition 1) was 6% and the inhibition (off-target kinases [7]; LanthaScreen Binding, read-out: % Inhibition 2) was 5%. For the same compound, the inhibition (off-target kinases [7]; LanthaScreen Binding, read-out: % Inhibition Avg) was 5%, the inhibition (off-target kinases [7]; ZLYTE, ATP 100, read-out: % Inhibition 1) was 7% and the inhibition (off-target kinases [7]; ZLYTE, ATP 100, read-out: % Inhibition 2) was 3%. For the same compound, the inhibition (off-target kinases [7]; ZLYTE, ATP 100, read-out: % Inhibition Avg) was 5%, the inhibition (off-target kinases [8]; read-out: % Inhibition 1) was 8% and the inhibition (off-target kinases [8]; read-out: % Inhibition 2) was 4%. For the same compound, the inhibition (off-target kinases [8]; read-out: % Inhibition Avg) was 6%, the inhibition (off-target kinases [9]; read-out: % Inhibition 1) was 12% and the inhibition (off-target kinases [9]; read-out: % Inhibition 2) was 14%. For the same compound, the inhibition (off-target kinases [9]; read-out: % Inhibition Avg) was 13%, the inhibition (off-target kinases [10]; read-out: % Inhibition 1) was 6% and the inhibition (off-target kinases [10]; read-out: % Inhibition 2) was 10%. For the same compound, the inhibition (off-target kinases [10]; read-out: % Inhibition Avg) was 8%, the inhibition (off-target kinases [11]; read-out: % Inhibition 1) was 4% and the inhibition (off-target kinases [11]; read-out: % Inhibition 2) was -2%. The inhibition (off-target kinases [11]; read-out: % Inhibition Avg) was 1%, the inhibition (off-target kinases [12]; read-out: % Inhibition 1) was 98% and the inhibition (off-target kinases [12]; read-out: % Inhibition 2) was 95%. For the same compound, the inhibition (off-target kinases [12]; read-out: % Inhibition Avg) was 96%.
